Laboratory results as given in paper PMC4648043, “Development of Small-Molecule Trypanosoma brucei N-Myristoyltransferase Inhibitors: Discovery and Optimisation of a Novel Binding Mode” (Chemmedchem, 2015).
Like-named read-outs stand apart in the source and are kept apart here.

Legend:
[1] = In vitro intrinsic clearance assay (CLint (m)); format: in vitro ADME; conditions: female CD1 mouse liver microsomes, 0.5 μM compound
Description: […]; 0.5 mg (mL 50 mM potassium phosphate buffer)^−1, pH 7.4), and the reaction was started by the addition of excess NADPH (8 mg (mL 50 mM potassium phosphate buffer)^−1, pH 7.4). Immediately, at time zero, then at 3, 6, 9, 15 and 30 min, an aliquot (50 μL) of the incubation mixture was removed and mixed with acetonitrile (100 μL) to stop the reaction. Internal standard was added to all samples, the samples were centrifuged (10 min, 5 °C, 3270 g) to sediment precipitated protein and the plates then sealed prior to UPLC–MS/MS analysis using a Quattro Premier XE (Waters Corp., USA).
XLfit (IDBS, UK) was used to calculate the exponential decay and consequently the rate constant (k) from the ratio of peak area of test compound to internal standard at each time point. The rate of intrinsic clearance (CLint: [mL min^−1 (g liver)^−1]) of each test compound was then calculated using Equation (1), in which V [mL (mg protein)^−1] is the incubation volume per mg protein added, and microsomal protein yield is taken as 52.5 mg protein per gram of liver. Verapamil (0.5 μM) was used as a positive control to confirm acceptable assay performance.

[2] = tested on: T. brucei; experiment: T. brucei parasite growth assay; format: cell-based, Trypanosoma brucei; conditions: for EC50: Trypanosoma brucei, mean of two or more determinations; for Selectivity ratio: hNMT IC50/T. brucei cell assay EC50
Description: (§1) Parasite and NMT assays: These were carried out as described previously.[8–10]

[3] = tested on: hMRC5; experiment: MRC5 cell assay; format: cell-based; conditions: Homo sapiens, mean of two or more determinations
[4] = In vitro plasma protein binding, equilibrium dialysis; format: in vitro ADME; conditions: female CD1 mouse plasma, equilibrium dialysis 5 h; read-out: PPB (converted)
Description: In vitro plasma protein binding experiments: In brief, a 96-well equilibrium dialysis apparatus was used to determine the free fraction in plasma for each compound (HT Dialysis LLC, Gales Ferry, CT, USA). Membranes (12-14 kDa cutoff) were conditioned in deionised water for 60 min, followed by conditioning in 80:20 deionised water/EtOH for 20 min, and then rinsed in isotonic buffer before use. Female CD1 mouse plasma was removed from the freezer and allowed to thaw on the day of experiment. Thawed plasma was then centrifuged (Allegra […], Beckman Coulter, USA, 10 min, 5 °C, 3270 g), spiked with test compound (10 μg g^-1), and 150 μL aliquots (n=6 replicate determinations) loaded into the 96-well equilibrium dialysis plate. Dialysis versus isotonic buffer (150 μL) was carried out for 5 h in a temperature-controlled incubator at ∼37 °C (Barworld Scientific Ltd., UK) using an orbital microplate shaker at 125 rpm (Barworld Scientific). At the end of the incubation period, aliquots of plasma or buffer were transferred to micronic tubes (Micronic B.V., the Netherlands), and the composition in each tube was balanced with control fluid such that the volume of buffer to plasma was the same. […] All samples were analysed by UPLC-MS/MS on a Quattro Premier XE Mass Spectrometer (Waters Corp., USA). The unbound fraction was determined as the ratio of the peak area in buffer to that in plasma.

[5] = biological target: T1, TbNMT (Trypanosoma brucei brucei, UniProt Q388H8); experiment: biochemical; format: biochemical; conditions: for LE TbNMT (ligand efficiency): calculated as 0.6 ln(IC50)/(heavy atom count); for IC50: mean of two or more determinations
T1 sequence (Q388H8 1-446): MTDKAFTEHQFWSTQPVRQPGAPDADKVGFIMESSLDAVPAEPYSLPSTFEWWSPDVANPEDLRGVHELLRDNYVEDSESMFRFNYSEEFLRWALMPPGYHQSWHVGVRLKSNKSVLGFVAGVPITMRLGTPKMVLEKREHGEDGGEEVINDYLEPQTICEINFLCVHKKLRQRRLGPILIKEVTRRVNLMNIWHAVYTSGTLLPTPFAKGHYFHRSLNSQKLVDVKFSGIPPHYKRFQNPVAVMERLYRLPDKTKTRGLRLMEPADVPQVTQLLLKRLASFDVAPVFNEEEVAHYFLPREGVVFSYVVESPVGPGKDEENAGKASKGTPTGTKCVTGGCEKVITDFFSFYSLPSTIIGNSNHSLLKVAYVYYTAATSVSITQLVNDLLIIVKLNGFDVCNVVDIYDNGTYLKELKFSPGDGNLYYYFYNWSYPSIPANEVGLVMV
Description: as §1

[6] = biological target: T2, hNMT (Homo sapiens, UniProt P30419); experiment: human NMT enzyme inhibition assay; format: biochemical; conditions: mean of two or more determinations
T2 sequence (P30419 1-496): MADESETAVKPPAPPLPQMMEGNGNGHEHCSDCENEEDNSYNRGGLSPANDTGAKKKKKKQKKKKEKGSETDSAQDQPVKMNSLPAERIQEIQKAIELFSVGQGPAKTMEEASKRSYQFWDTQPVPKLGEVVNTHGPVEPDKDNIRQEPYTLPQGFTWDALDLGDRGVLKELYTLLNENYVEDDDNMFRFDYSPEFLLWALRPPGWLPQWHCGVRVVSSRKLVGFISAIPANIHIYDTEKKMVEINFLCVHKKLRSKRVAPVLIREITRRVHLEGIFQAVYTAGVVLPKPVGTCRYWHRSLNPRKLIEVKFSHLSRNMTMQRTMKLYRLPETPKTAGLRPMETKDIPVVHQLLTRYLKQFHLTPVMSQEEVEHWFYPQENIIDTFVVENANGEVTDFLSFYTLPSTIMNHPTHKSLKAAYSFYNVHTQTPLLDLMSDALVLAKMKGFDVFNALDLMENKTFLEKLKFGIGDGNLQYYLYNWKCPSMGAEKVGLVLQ
Description: as §1

[7] = tested on: hMRC5; set-up: method as in PMID 20360736; conditions: previously published inhibitor; cited from earlier work

| CLint (m) [1] | EC50 [2] | fraction unbound at 5 h, 10 μg g^−1 [4] | LE TbNMT (ligand efficiency) [5] | IC50 ([5]; read-out: IC50 TbNMT) | IC50 [6] | IC50 ([5]; IC50 TbNMT) | Structure (SMILES) | EC50 [3] | Selectivity ratio [2] | EC50 [7] |
| --- | --- | --- | --- | --- | --- | --- | --- | --- | --- | --- |
| 2.0 mL min^−1 (g liver)^−1 | 410 nM | – | – | – | – | – | Cc1cc(CN2C(=O)COc3c(CCCCC4CCNCC4)cccc32)no1 [Compound 39, 4-((5-Methylisoxazol-3-yl)methyl)-8-(4-(piperidin-4-yl)butyl)-2H-benzo[b][1,4]oxazin-3(4H)-one] | > 50000 nM | – | – |
| 12 mL min^−1 (g liver)^−1 | 7 nM | 0.06 | – | – | – | – | Cc1cc(CN2C(=O)COc3cc(CCCCC4CCN(C)CC4)ccc32)no1 [Compound 44, 4-((5-Methylisoxazol-3-yl)methyl)-7-(4-(1-methylpiperidin-4-yl)butyl)-2H-benzo[b][1,4]oxazin-3(4H)-one] | 10000 nM | – | – |
| 7.0 mL min^−1 (g liver)^−1 | 350 nM | – | 0.38 | 9 nM | 24000 nM | – | Cc1cc(CN2C(=O)COc3cc(CCCOC[C@@H]4CCN(C)C4)ccc32)no1 [Compound 42, (R)-4-((5-Methylisoxazol-3-yl)methyl)-7-(3-((1-methylpyrrolidin-3-yl)methoxy)propyl)-2H-benzo[b][1,4]oxazin-3(4H)-one] | > 50000 nM | 69 | – |
| – | > 50000 nM | – | 0.42 | – | > 100000 nM | 12000 nM | CCOC(=O)CN1C(=O)COc2ccccc21 [Compound 14, Ethyl 2-(3-oxo-2H-benzo[b][1,4]oxazin-4(3H)-yl)acetate] | > 50000 nM | – | – |
| – | – | – | – | – | – | – | Cc1nn(C)c(C)c1NS(=O)(=O)c1c(Cl)cc(-c2ccnc(N3CCNCC3)c2)cc1Cl [DDD85646] | – | – | 400 nM |
| 10 mL min^−1 (g liver)^−1 | 190 nM | 0.18 | – | – | – | – | Cc1cc(CN2C(=O)COc3c(CCCCC4CCN(C)CC4)cccc32)no1 [Compound 41, 4-((5-Methylisoxazol-3-yl)methyl)-8-(4-(1-methylpiperidin-4-yl)butyl)-2H-benzo[b][1,4]oxazin-3(4H)-one] | 19000 nM | – | – |
| – | 80 nM | – | >0.38 | < 2 nM | 1000 nM | – | Cc1cc(CN2C(=O)COc3c(CCCCN4CCCN(C)CC4)cccc32)no1 [Compound 40, 4-(4-(4-((5-Methylisoxazol-3-yl)methyl)-3-oxo-3,4-dihydro-2H-benzo[b][1,4]oxazin-8-yl)butyl)homopiperazine-1-methyl] | 24000 nM | 13 | – |
